Test results as given in the NIST ThermoML archive (doi:10.1016/j.fluid.2013.10.022).
± gives the expanded uncertainty stated by the source.

What was measured:
[1] = 298.2 K; 101.33 kPa; Liquid; Vibrating tube method
[2] = refractive index (Na D-line) (dimensionless); details: 298.2 K; 101.33 kPa; Liquid; Standard Abbe refractometry

mass density [1]	refractive index [2]	Compound
830.22 ± 0.24 kg/m3	1.4293 ± 0.0008	CCCCC(CC)CO (configuration not stated) [2-ethyl-1-hexanol]
952.68 ± 0.23 kg/m3	1.3977 ± 0.0008	CCCC(=O)O [butanoic acid]
821.69 ± 0.24 kg/m3	1.4276 ± 0.0008	CCCCCCCCO [octan-1-ol]
	1.3324 ± 0.0008	O [water]
